“Also recorded” adds a separate entry of the source.

The test system of one test is TF-1 cells. Briefly: Growth factor deprivation apoptosis, caspase-3 ELISA, TF-1. To be noted: serum-free medium with or without GM-CSF, SERF2 5 μg/ml, 9.5 hours. The format is cell-based, human. As for the experimental part:
TF-1 cells were incubated under different culture conditions: FCS+GM-CSF (dark blue), serum-free medium+GM-CSF (5 μg/ml; pale blue), serum-free medium+GM-CSF+SERF2 (5 μg/ml; lime), serum-free medium+SERF2 (green) and serum-free medium only (red). After 9.5 hours culture supernatants were analyzed by an ELISA-technique for caspase-3 expression levels. Results are expressed as pNA in pmol/μl
(§1) Caspase-3 is a member of the cysteine aspartic acid-specific protease family and is a marker of an early event in apoptosis. Caspase-3 expression was measured using a commercially available kit. Briefly, culture supernatants of cells undergoing apoptosis after different treatments were harvested and incubated with a substrate labeled with p-nitroaniline (pNA), which produces a yellow color when it is cleaved by caspase-3. The amount of produced yellow color is proportional to the caspase-3 activity, which can be determined by an ELISA reader at 405 nm (Promega). The assay was performed essentially as described by the manufacturer (instruction manual of CaspACE™ Assay System, Promega).
(§2) The question was asked whether SERF2 has an effect on growth factor deprivation- or stress-induced apoptosis. The experimental protocol included addition of Hydrogen peroxide (H2O2), which is known to cause cellular stress and consequently apoptotic death in doses below 200 μM (Cox A., Carcinogenesis. 2007, Vol. 28, 10). […]
For orientation: In an ELISA, binding on a coated surface is turned into a signal by an enzyme label.

In another test the test system is zebrafish. In words: Zebrafish blood cell concentration. The format is in vivo. As for the experimental part: FIG. 14: Changes in blood cell concentrations in zebrafish incubated in different doses of SERF2. Shown are mean values (blood cells/nl) and SEM. Asterisks indicate significant differences to control animals.
FIG. 17: Detection of blood cells (green arrows) in 7 dpf zebrafish (top image=control, lower image=SERF2-treated). To determine blood cell concentration the number of detected cells were divided by vessel volume.
SERF2 was administered by a) injection of the native protein into the yolk sac of 3 day post fertilization (dpf) animals and freshly fertilized eggs (2-8 cell stage) in various protein concentrations or chronic incubation with the native protein to supply it via diffusion. For in deep analysis of angiogenic effects flk-1 transgenic animals with gfp (green fluorescent protein) labelled endothelium were used. For all other experiments wildtype (wdt) animals were used.
A cast of the vascular bed was obtained by accumulation of the shifting vectors of moving erythrocytes from a number of subsequent difference pictures, as described previously (by Schwerte et al., supra). In parallel to this flk-1 transgenic animals, which show green fluorescing endothelium, were imaged.

In the next test the test system is 711-3 cells. In words: H2O2-induced apoptosis, caspase-3 ELISA, 711-3. The format is cell-based, human. To be noted: serum-free medium with or without H2O2, SERF2 5 μg/ml, 9.5 hours. As for the experimental part:
711-3 cells were incubated under different culture conditions: serum-free medium (dark blue), serum-free medium+SERF2 (5 μg/ml; lime) serum-free medium+SERF2+H2O2 (green) and serum-free medium+H2O2 (red). After 9.5 hours culture supernatants were analyzed by an ELISA-technique for caspase-3 expression levels. Results are expressed as pNA in pmol/μl.
as §1, §2

“SERF2: Small EDRK-rich factor 2, mature protein of 59 amino acids (SEQ ID NO: 1) (MTRGNQRELARQKNMKKQSDSVKGKRRDDGLSAAARKQRDSEIMQQKQKKANEKKEEPK; homo sapiens)”: in the test with TF-1 cells, the “apoptosis (caspase-3 levels) in TF-1 cells” value is “markedly reduced apoptosis; also recorded: compensates for FCS and alleviates apoptosis”. Also, the “blood cell concentrations by treatment group” value in the test on zebrafish (7 dpf, incubation and injection routes) is “all but one treatment group show significantly increased blood cell concentrations”. In addition, the “increase in blood cell concentration compared to controls” value in the test with zebrafish (zebrafish, different doses of SERF2) is on record as 50 to 100%. Also, the “apoptosis (caspase-3 levels) in 711-3 cells” value in the test on 711-3 cells is reported as “markedly reduced apoptosis; also recorded: alleviates apoptosis”.
